# Assay results as given in patent US4242354A, “2-(2-Thenolythio)-propionylglycine: method for its preparation and pharmaceutical formulations containing said compound” (Mediolanum Farmaceutici S.r.L., priority 1978, dated 1980).
# Read-outs that look alike come from different tables or passages of the source.
# Assays:
# [1] = Stability test: melting point before and after heating; format: physicochemical
# Description: (§1) The stability tests were carried out according to the Rogers' nonisothermic method suitably integrated by the evaluation of physical data, melting point, weight variation, and spectrophotometric assay. For each single compound, the tests were performed on a series of samples, with the weight of 100 milligrams, added for the wet tests with 1 ml of distilled water. […] The sample were kept in a thermostat at increasing temperatures, i.e. from 25° to 80° C. […] The temperature, programmed according to the Rogers' formula, resulted to be 40° C. at the end of the first hour, 50° C. at the end of the second hour, 57° C. at the end of the third hour, 63° C. at the end of the fourth hour, 69° C. at the end of the fifth hour, 73° C. at the end of the sixth hour, 77° C. at the end of the seventh hour and, as already specified, 80° C. at the end of the eighth hour.
# The melting point was established in a capillary tube, under identical conditions, on the samples No. 5 after heating for 8 hours in the previously specified conditions, and on the samples No. 10 after heating and evaporation to dryness as previously specified.
# [2] = Solubility and organoleptic properties; format: physicochemical; conditions: 100 milligrams with 1 ml of distilled water
# mouse [3] = conditions: intravenous, 10 animals per dose
# mercuric chloride = assay: In vivo protective action against mercurial compounds; design: species or system male mice (Swiss strain); conditions: 300 mg/kg ip, mercuric chloride 20 mg/kg ip, mice, 24 hours
# Description: Forty male mice (Swiss strain, 22 grams mean bodyweight) were used for the investigation, subdivided into 4 groups treated as follows:
# (1) mercuric chloride, 20 mg/kg/intraperitoneally;
# (4) mercuric chloride 20 mg/kg/intraperitoneally+2-thiopropionylglycine 300 mg/kg/intraperitoneally.
# Deaths occurred were recorded hourly in the first 5 hours, and thereafter after 24 hours.
# mouse [4] = conditions: oral, 10 animals per dose
# [5] = background; cited from earlier work
# rat = assay: in vivo; conditions: 10 animals per dose
# Description: (§2) Hundred-and-forty (140) albino rats, Sprague-Dawley strain, bodyweight 120-135 grams, subdivided into groups each consisting of 5 animals, were used for the investigation. […] For each single compound the LD 50 was assessed according to Litchfield and Wilcoxon on the basis of the mortality rate encountered in the 7 days following the treatment.
# in vivo [6] = conditions: rat, in vivo
# Description: as §2
# [7] = Rogers' nonisothermic method: energies of activation, specific velocities, validity periods; format: physicochemical
# Description: as §1
# The data shown in Table 7 were worked out according to the Rogers' method, drawing up the values of the energies of activation of the decomposition reactions under dry and wet conditions, the specific rate constants as well as the validity period.
# in vivo [8] = conditions: mouse, iv
# [9] = Stability test: physical properties and weight variations on heating; format: physicochemical
# Description: as §1
# Still in Table 5, the sample from 1 to 5 refer, for each of the two compounds, to the dry substance while the samples from 6 to 10 refer to the solution or to the aqueous suspension obtained as above specified.
# (§3) In the case of the wet-treated samples, the final weight was only established on the samples No. 10 brought to dryness at 60° C. under vacuum after an 8-hour heating.
# in vivo [10] = conditions: mouse, po
# physchem = assay: physchem
# Description: as §1, §3
# [11] = system: carbon tetrachloride poisoning; assay: Protective activity in the carbon tetrachloride poisoning; format: in vivo, male rats (Sprague-Dawley); conditions: CCl4 0.5 ml/mg sc, 7 days; drugs intramuscularly, (I) 200 and 300 mg/kg, (II) 300 mg/kg
# Description: Fifty male rats (Sprague-Dawley, 180-200 grams bodyweight) were used for the investigation, subdivided into 5 groups: one group was given no treatment while the remaining 4 groups were poisoned for 7 consecutive days with CCl4 at the dosage of […] given subcutaneously.
# bromobenzene poisoning = assay: Protective activity in the bromobenzene poisoning; format: in vivo, male rats (Sprague-Dawley); conditions: 300 mg/kg oral, vs investigational compound
# Description: Fifty male rats (Sprague-Dawley, 180-200 g bodyweight) were used for the investigation, subdivided into 5 groups, each consisting of 10 animals, given orally the following compounds
# (1) 5 percent gum arabic in tap water
# (2) 5 percent gum arabic in tap water
# (3) 2-(2-thenoylthio)-propionylglycine--200 mg/kg
# (4) 2-(2-thenoylthio)-propionylglycine--300 mg/kg
# Seven days later, the animals of the groups 2-3-4-[…] were given bromobenzene subcutaneously (150 mg/rat) while the remaining group (control) was given an equivalent volume of saline. Still seven days later, 5 of the animals of each group were given Nembutal (25 mg/kg/intraperitoneally), and the sleeping time was calculated.
# The remaining 5 animals of each group were given bromophthalein at the dose of 50 mg intravenously; thirty minutes later, the animals were sacrificed and both the present bromophthalein and SGPT (serum glutamic pyruvic transaminase) were established in the blood.
# elderly patients = format: in vivo, man
# Description: The drug was assessed, with respect to its mucolytic action, on thirty elderly patients ([…], maximal 87, mean age 72). […] The improvement was assessed on the basis of the following parameters:
# decrease of the daily quantity of sputum;
# decrease of the viscosity of the sputum;
# increase of the Tiffeneau's index;
# improved value of the erythrocyte sedimentation rate.
# A group of twenty patients, in the same mean age, was given for control purposes a known drug such as N-acetylcysteine.
# [12] = sample 1, dry, 1 hour 30 minutes
# [13] = sample 3, dry, 5 hours 15 minutes
# [14] = sample 5, dry, 8 hours, listed as 2-thiopropionylglycine
# [15] = sample 10, wet, 8 hours, brought to dryness
compound,measurement,setting,value
"CC(S)C(=O)NCC(=O)O (centres unmarked) [compound (II), 2-mercaptopropionylglycine, reference compound]",melting point variation,[1]; after heating,marked decrease of the melting point in the case of the wet sample
same,Final m.p. wet conditions (Sample 10),[1]; after heating 8 hours wet and evaporation to dryness,86-88 °C
same,Final m.p. dry conditions (Sample 5),"[1]; after heating for 8 hours, dry",92-94 °C
same,Initial m.p.,[1]; before heating,93-95 °C
same,appearance in water,[2],clear solution
same,No. Animals Dead,mouse [3]; 500 mg/kg,0
same,No. Animals Dead,mouse [3]; 750 mg/kg,0
same,No. Animals Dead,mouse [3]; 1000 mg/kg,1
same,deaths,mercuric chloride,10%
same,No. Animals Dead,mouse [4]; 1500 mg/kg,0
same,No. Animals Dead,mouse [4]; 2000 mg/kg,1
same,No. Animals Dead,mouse [4]; 2500 mg/kg (highest dose),2
same,stability (known),[5],low stability
same,No. Animals Dead,"rat; intramuscular, 1500 mg/kg",2
same,No. Animals Dead,"rat; intramuscular, 1750 mg/kg",6
same,No. Animals Dead,"rat; intramuscular, 2000 mg/kg",10
same,No. Animals Dead,"rat; oral, 1500 mg/kg",0
same,No. Animals Dead,"rat; oral, 2000 mg/kg",0
same,No. Animals Dead,"rat; oral, 2500 mg/kg (highest dose)",2
same,LD50 at 168 h,in vivo [6]; im,1630 mg/kg
same,mortality at 168 h,"in vivo [6]; im, 1500 mg/kg",20%
same,mortality at 168 h,"in vivo [6]; im, 1750 mg/kg",60%
same,mortality at 168 h,"in vivo [6]; im, 2000 mg/kg",100%
same,mortality at 168 h,"in vivo [6]; po, 1500 mg/kg",0%
same,mortality at 168 h,"in vivo [6]; po, 2000 mg/kg",0%
same,mortality at 168 h,"in vivo [6]; po, 2500 mg/kg",20%
same,Energy of activation of the decomposition reaction,[7]; dry,15.66 kcal/mol
same,Energy of activation of the decomposition reaction,[7]; wet,11.54 kcal/mol
same,mortality,in vivo [8]; 500 mg/kg,0%
same,mortality,in vivo [8]; 750 mg/kg,0%
same,mortality,in vivo [8]; 1000 mg/kg,10%
same,Color,[9]; [12],white
same,Weight Fin.,[9]; [12],98.3 mg
same,Weight Variations,[9]; [12],-5.4%
same,Color,"[9]; sample 2, dry, 3 hours",white
same,Weight Fin.,"[9]; sample 2, dry, 3 hours, listed as 2-thiopropionylglycine",93.0 mg
same,Color,[9]; [13],white
same,Weight Fin.,[9]; [13],94.8 mg
same,Weight Variations,[9]; [13],-5.67%
same,Color,"[9]; sample 4, dry, 8 hours",white
same,Weight Fin.,"[9]; sample 4, dry, 8 hours",95.7 mg
same,Weight Variations,"[9]; sample 4, dry, 8 hours",-5.53%
same,Weight Fin.,[9]; [14],198.9 mg
same,Weight Variations,[9]; [14],-2.83%
same,Color,"[9]; sample 6, wet",colorless
same,Color,"[9]; sample 7, wet",colorless
same,Color,"[9]; sample 8, wet",colorless
same,Color,"[9]; sample 9, wet",yellowish
same,Weight Fin.,[9]; [15],193.8 mg
same,Weight Variations,[9]; [15],-3.1%
same,mortality,in vivo [10]; 1500 mg/kg,0%
same,mortality,in vivo [10]; 2000 mg/kg,10%
same,mortality,in vivo [10]; 2500 mg/kg,20%
same,Content,physchem,101.43%
same,E at 232 nm,physchem; as such,0.329
same,remaining at 1.5 h,physchem; dry,101%
same,remaining at 3 h,physchem; dry,101%
same,remaining at 5.25 h,physchem; dry,99.5%
same,remaining at 8 h,physchem; dry,98.4%
same,E at 232 nm,"physchem; sample 1, dry",0.325
same,E at 232 nm,"physchem; sample 2, dry",0.324
same,E at 232 nm,"physchem; sample 3, dry",0.325
same,E at 232 nm,"physchem; sample 4, dry",0.324
same,E at 232 nm,"physchem; sample 6, wet",0.333
same,E at 232 nm,"physchem; sample 7, wet",0.325
same,E at 232 nm,"physchem; sample 8, wet",0.320
same,E at 232 nm,"physchem; sample 9, wet",0.300
same,liver weight increase consequent to CCl4,[11],can prevent the liver weight increase
same,liver protective effect,bromobenzene poisoning,"lower than that induced by the investigational compound, and statistically not significant"
"CC(=O)N[C@@H](CS)C(=O)O [N-acetylcysteine, reference compound]",fit of cough on aerosol administration,elderly patients; in vivo,frequently happens
same,"decrease of the sputum, comparison of (I) and N-acetylcysteine",elderly patients; twenty control patients on N-acetylcysteine,overall comparable with those provided by the compound (I)
